Data published in patent US20210127726A1, “METHODS FOR IMPROVING THE SOLUBILITY OF STEVIOL GLYCOSIDE MIXTURES, AND USES” (The Coca-Cola Company, priority 2018, published 2021).

Test: Aqueous solubility of steviol glycosides and blends
Format: physicochemical
Protocol: A number of methods are known in the art for determining aqueous solubility. In one such method, solubility can be determined by a solvent addition method in which a weighed sample is treated with aliquots of aqueous solvent. The mixture is generally vortexed and/or sonicated between additions to facilitate dissolution. Complete dissolution of the test material is determined by visual inspection. Solubility is calculated based on the total solvent used to provide complete dissolution.
Another method for determining solubility is by measuring the turbidity (NTU units) of a composition using a turbidimeter, such as HACH 2100 AN. In a typical experiment, a portion of the composition to be measured is added to a portion of aqueous solvent (or visa versa) at room temperature. Turbidity is measured after waiting from 2-10 minutes to observe visual dissolution of the portion. Then, another portion of the composition is added, dissolution is observed and turbidity is measured again. This process is repeated until turbidity reaches exceeds beyond acceptable values, typically around 4 NTU-10 NTU. While turbidity measurements can be very useful in determining solubility, it will not detect solids collected on the bottom of a container. Accordingly, it is important to shake the container prior to determining turbidity and confirm a given turbidity measurement with visual inspection of dissolution. […]

Row | Compound | aqueous solubility [wt %]
1 | C=C1C[C@@]23CC[C@H]4[C@@](C)(CCC[C@@]4(C)C(=O)O[C@@H]4O[C@H](CO)[C@@H](O)[C@H](O)[C@H]4O[C@@H]4O[C@H](CO)[C@@H](O)[C@H](O)[C@H]4O)[C@@H]2CC[C@]1(O[C@@H]1O[C@H](CO)[C@@H](O)[C@H](O[C@@H]2O[C@H](CO)[C@@H](O)[C@H](O)[C@H]2O)[C@H]1O[C@@H]1O[C@H](CO)[C@@H](O)[C@H](O)[C@H]1O)C3 [Pure reb D, rebaudioside D] | 0.05
2 | C=C1C[C@@]23CC[C@H]4[C@@](C)(CCC[C@@]4(C)C(=O)O[C@@H]4O[C@H](CO)[C@@H](O)[C@H](O[C@@H]5O[C@H](CO)[C@@H](O)[C@H](O)[C@H]5O)[C@H]4O[C@@H]4O[C@H](CO)[C@@H](O)[C@H](O)[C@H]4O)[C@@H]2CC[C@]1(O[C@@H]1O[C@H](CO)[C@@H](O)[C@H](O[C@@H]2O[C@H](CO)[C@@H](O)[C@H](O)[C@H]2O)[C@H]1O[C@@H]1O[C@H](CO)[C@@H](O)[C@H](O)[C@H]1O)C3 [Pure reb M, 13-[(2-O-β-D-glucopyranosyl-3-O-β-D-glucopyranosyl-β-D-glucopyranosyl)oxy] ent kaur-16-en-19-oic acid-[(2-O-β-D-glucopyranosyl-3-O-β-D-glucopyranosyl-β-D-glucopyranosyl) ester]] | 0.1
